# PubChem BioAssay (NCI)
#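 Five concentrations, 48 hours, 96-well plates. The concentration for 50% growth inhibition is given as GI50. TGI denotes the concentration required for complete inhibition of growth.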
# Tests used:
# Experiment in all cases: inhibition of tumour cell growth, NCI panel, 48 h
# 786-0 renal = tested on: 786-0 renal
# A498 renal = tested on: A498 renal
# A549 NSCLC = tested on: A549 NSCLC
# ACHN renal = tested on: ACHN renal
# BT-549 breast = tested on: BT-549 breast
# CAKI-1 renal = tested on: CAKI-1 renal
# CCRF-CEM leukemia = tested on: CCRF-CEM leukemia
# COLO 205 colon = tested on: COLO 205 colon
# DU-145 prostate = tested on: DU-145 prostate
# EKVX NSCLC = tested on: EKVX NSCLC
# HCC-2998 colon = tested on: HCC-2998 colon
# HCT-116 colon = tested on: HCT-116 colon
# HCT-15 colon = tested on: HCT-15 colon
# HL-60(TB) leukemia = tested on: HL-60(TB) leukemia
# HOP-62 NSCLC = tested on: HOP-62 NSCLC
# HOP-92 NSCLC = tested on: HOP-92 NSCLC
# HS 578T breast = tested on: HS 578T breast
# HT29 colon = tested on: HT29 colon
# IGROV1 ovarian = tested on: IGROV1 ovarian
# K-562 leukemia = tested on: K-562 leukemia
# KM12 colon = tested on: KM12 colon
# LOX IMVI melanoma = tested on: LOX IMVI melanoma
# M14 melanoma = tested on: M14 melanoma
# MALME-3M melanoma = tested on: MALME-3M melanoma
# MCF7 breast = tested on: MCF7 breast
# MDA-MB-231 breast = tested on: MDA-MB-231 breast
# MDA-MB-435 = tested on: MDA-MB-435
# MOLT-4 leukemia = tested on: MOLT-4 leukemia
# NCI-H226 lung = tested on: NCI-H226 lung
# NCI-H23 lung = tested on: NCI-H23 lung
# NCI-H460 lung = tested on: NCI-H460 lung
# NCI-H522 lung = tested on: NCI-H522 lung
# NCI/ADR-RES ovarian = tested on: NCI/ADR-RES ovarian
# OVCAR-3 ovarian = tested on: OVCAR-3 ovarian
# OVCAR-4 ovarian = tested on: OVCAR-4 ovarian
# OVCAR-8 ovarian = tested on: OVCAR-8 ovarian
# PC-3 prostate = tested on: PC-3 prostate
# RPMI-8226 leukemia = tested on: RPMI-8226 leukemia
# RXF 393 renal = tested on: RXF 393 renal
# SF-268 CNS = tested on: SF-268 CNS
# SF-295 CNS = tested on: SF-295 CNS
# SF-539 CNS = tested on: SF-539 CNS
# SK-MEL-2 melanoma = tested on: SK-MEL-2 melanoma
# SK-MEL-28 melanoma = tested on: SK-MEL-28 melanoma
# SK-MEL-5 melanoma = tested on: SK-MEL-5 melanoma
# SK-OV-3 ovarian = tested on: SK-OV-3 ovarian
# SN12C renal = tested on: SN12C renal
# SNB-19 CNS = tested on: SNB-19 CNS
# SNB-75 CNS = tested on: SNB-75 CNS
# SR leukemia = tested on: SR leukemia
# SW-620 colon = tested on: SW-620 colon
# T-47D breast = tested on: T-47D breast
# TK-10 renal = tested on: TK-10 renal
# U251 CNS = tested on: U251 CNS
# UACC-257 melanoma = tested on: UACC-257 melanoma
# UACC-62 melanoma = tested on: UACC-62 melanoma
# UO-31 renal = tested on: UO-31 renal
compound,measurement,setting,value
c1cn2cc(-c3ccc4cn[nH]c4c3)nc(Nc3ccc(N4CCOCC4)cc3)c2n1,GI50,786-0 renal,14.9 µM
same,TGI,786-0 renal,32 µM
same,GI50,A498 renal,11.9 µM
same,TGI,A498 renal,36.2 µM
same,GI50,A549 NSCLC,10.4 µM
same,TGI,A549 NSCLC,28.8 µM
same,GI50,ACHN renal,11.1 µM
same,TGI,ACHN renal,32.2 µM
same,GI50,BT-549 breast,14.5 µM
same,TGI,BT-549 breast,48.1 µM
same,GI50,CAKI-1 renal,8.4 µM
same,TGI,CAKI-1 renal,44.3 µM
same,GI50,CCRF-CEM leukemia,> 100 µM
same,TGI,CCRF-CEM leukemia,> 100 µM
same,GI50,COLO 205 colon,41.3 µM
same,TGI,COLO 205 colon,> 100 µM
same,GI50,DU-145 prostate,11.4 µM
same,TGI,DU-145 prostate,23.5 µM
same,GI50,EKVX NSCLC,14.8 µM
same,TGI,EKVX NSCLC,41.8 µM
same,GI50,HCC-2998 colon,61.6 µM
same,TGI,HCC-2998 colon,> 100 µM
same,GI50,HCT-116 colon,10.1 µM
same,TGI,HCT-116 colon,23.3 µM
same,GI50,HCT-15 colon,11.7 µM
same,TGI,HCT-15 colon,41.1 µM
same,GI50,HL-60(TB) leukemia,> 100 µM
same,TGI,HL-60(TB) leukemia,> 100 µM
same,GI50,HOP-62 NSCLC,3.81 µM
same,TGI,HOP-62 NSCLC,16.1 µM
same,GI50,HOP-92 NSCLC,15.6 µM
same,TGI,HOP-92 NSCLC,33.8 µM
same,GI50,HS 578T breast,11.1 µM
same,TGI,HS 578T breast,63.8 µM
same,GI50,HT29 colon,9.01 µM
same,TGI,HT29 colon,37 µM
same,GI50,IGROV1 ovarian,16.5 µM
same,TGI,IGROV1 ovarian,46 µM
same,GI50,K-562 leukemia,> 100 µM
same,TGI,K-562 leukemia,> 100 µM
same,GI50,KM12 colon,0.479 µM
same,TGI,KM12 colon,59 µM
same,GI50,LOX IMVI melanoma,17.8 µM
same,TGI,LOX IMVI melanoma,> 100 µM
same,GI50,M14 melanoma,15.1 µM
same,TGI,M14 melanoma,62.3 µM
same,GI50,MALME-3M melanoma,10.4 µM
same,TGI,MALME-3M melanoma,27.3 µM
same,GI50,MCF7 breast,10.6 µM
same,TGI,MCF7 breast,25.1 µM
same,GI50,MDA-MB-231 breast,12.6 µM
same,TGI,MDA-MB-231 breast,26.7 µM
same,GI50,MDA-MB-435,12.8 µM
same,TGI,MDA-MB-435,> 100 µM
same,GI50,MOLT-4 leukemia,96.9 µM
same,TGI,MOLT-4 leukemia,> 100 µM
same,GI50,NCI-H226 lung,4.82 µM
same,TGI,NCI-H226 lung,24.6 µM
same,GI50,NCI-H23 lung,15.2 µM
same,TGI,NCI-H23 lung,55 µM
same,GI50,NCI-H460 lung,7.59 µM
same,TGI,NCI-H460 lung,25.4 µM
same,GI50,NCI-H522 lung,12.3 µM
same,TGI,NCI-H522 lung,39 µM
same,GI50,NCI/ADR-RES ovarian,11.1 µM
same,TGI,NCI/ADR-RES ovarian,32.4 µM
same,GI50,OVCAR-3 ovarian,18.4 µM
same,TGI,OVCAR-3 ovarian,40.2 µM
same,GI50,OVCAR-4 ovarian,7.78 µM
same,TGI,OVCAR-4 ovarian,36.2 µM
same,GI50,OVCAR-8 ovarian,4.87 µM
same,TGI,OVCAR-8 ovarian,21.8 µM
same,GI50,PC-3 prostate,14.7 µM
same,TGI,PC-3 prostate,35.4 µM
same,GI50,RPMI-8226 leukemia,18.5 µM
same,TGI,RPMI-8226 leukemia,86.6 µM
same,GI50,RXF 393 renal,2.47 µM
same,TGI,RXF 393 renal,18.3 µM
same,GI50,SF-268 CNS,5.11 µM
same,TGI,SF-268 CNS,27.4 µM
same,GI50,SF-295 CNS,10.6 µM
same,TGI,SF-295 CNS,29.5 µM
same,GI50,SF-539 CNS,6.54 µM
same,TGI,SF-539 CNS,23.1 µM
same,GI50,SK-MEL-2 melanoma,36.1 µM
same,TGI,SK-MEL-2 melanoma,> 100 µM
same,GI50,SK-MEL-28 melanoma,13 µM
same,TGI,SK-MEL-28 melanoma,40.5 µM
same,GI50,SK-MEL-5 melanoma,15.5 µM
same,TGI,SK-MEL-5 melanoma,40.1 µM
same,GI50,SK-OV-3 ovarian,6.43 µM
same,TGI,SK-OV-3 ovarian,19.6 µM
same,GI50,SN12C renal,17 µM
same,TGI,SN12C renal,41.2 µM
same,GI50,SNB-19 CNS,11.2 µM
same,TGI,SNB-19 CNS,30.8 µM
same,GI50,SNB-75 CNS,1.46 µM
same,TGI,SNB-75 CNS,13.3 µM
same,GI50,SR leukemia,6.66 µM
same,TGI,SR leukemia,27.5 µM
same,GI50,SW-620 colon,26.7 µM
same,TGI,SW-620 colon,> 100 µM
same,GI50,T-47D breast,12 µM
same,TGI,T-47D breast,30.9 µM
same,GI50,TK-10 renal,17.3 µM
same,TGI,TK-10 renal,37.8 µM
same,GI50,U251 CNS,10 µM
same,TGI,U251 CNS,21.6 µM
same,GI50,UACC-257 melanoma,16.4 µM
same,TGI,UACC-257 melanoma,44.8 µM
same,GI50,UACC-62 melanoma,11.8 µM
same,TGI,UACC-62 melanoma,37.8 µM
same,GI50,UO-31 renal,14.6 µM
same,TGI,UO-31 renal,34.8 µM
